Here are results for ten compounds from ChEMBL document CHEMBL1909046, “DrugMatrix in vitro pharmacology data”.

Chain of Cytochrome P450 2C19 (P33261 whole entry): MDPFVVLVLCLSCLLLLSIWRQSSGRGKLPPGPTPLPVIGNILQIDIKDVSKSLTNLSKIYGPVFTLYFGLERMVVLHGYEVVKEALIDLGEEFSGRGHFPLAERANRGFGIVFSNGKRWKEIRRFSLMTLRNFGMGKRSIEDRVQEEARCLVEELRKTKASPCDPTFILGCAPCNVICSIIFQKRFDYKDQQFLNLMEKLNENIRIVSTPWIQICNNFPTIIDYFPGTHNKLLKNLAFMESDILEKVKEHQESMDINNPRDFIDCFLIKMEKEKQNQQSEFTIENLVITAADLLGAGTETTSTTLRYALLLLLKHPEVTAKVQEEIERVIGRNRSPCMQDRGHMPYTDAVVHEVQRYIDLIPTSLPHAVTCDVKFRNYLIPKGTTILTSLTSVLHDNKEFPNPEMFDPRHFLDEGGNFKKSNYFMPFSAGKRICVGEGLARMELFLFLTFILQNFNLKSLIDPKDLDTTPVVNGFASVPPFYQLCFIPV
Chain of Nitric oxide synthase 1 (P29476 whole entry): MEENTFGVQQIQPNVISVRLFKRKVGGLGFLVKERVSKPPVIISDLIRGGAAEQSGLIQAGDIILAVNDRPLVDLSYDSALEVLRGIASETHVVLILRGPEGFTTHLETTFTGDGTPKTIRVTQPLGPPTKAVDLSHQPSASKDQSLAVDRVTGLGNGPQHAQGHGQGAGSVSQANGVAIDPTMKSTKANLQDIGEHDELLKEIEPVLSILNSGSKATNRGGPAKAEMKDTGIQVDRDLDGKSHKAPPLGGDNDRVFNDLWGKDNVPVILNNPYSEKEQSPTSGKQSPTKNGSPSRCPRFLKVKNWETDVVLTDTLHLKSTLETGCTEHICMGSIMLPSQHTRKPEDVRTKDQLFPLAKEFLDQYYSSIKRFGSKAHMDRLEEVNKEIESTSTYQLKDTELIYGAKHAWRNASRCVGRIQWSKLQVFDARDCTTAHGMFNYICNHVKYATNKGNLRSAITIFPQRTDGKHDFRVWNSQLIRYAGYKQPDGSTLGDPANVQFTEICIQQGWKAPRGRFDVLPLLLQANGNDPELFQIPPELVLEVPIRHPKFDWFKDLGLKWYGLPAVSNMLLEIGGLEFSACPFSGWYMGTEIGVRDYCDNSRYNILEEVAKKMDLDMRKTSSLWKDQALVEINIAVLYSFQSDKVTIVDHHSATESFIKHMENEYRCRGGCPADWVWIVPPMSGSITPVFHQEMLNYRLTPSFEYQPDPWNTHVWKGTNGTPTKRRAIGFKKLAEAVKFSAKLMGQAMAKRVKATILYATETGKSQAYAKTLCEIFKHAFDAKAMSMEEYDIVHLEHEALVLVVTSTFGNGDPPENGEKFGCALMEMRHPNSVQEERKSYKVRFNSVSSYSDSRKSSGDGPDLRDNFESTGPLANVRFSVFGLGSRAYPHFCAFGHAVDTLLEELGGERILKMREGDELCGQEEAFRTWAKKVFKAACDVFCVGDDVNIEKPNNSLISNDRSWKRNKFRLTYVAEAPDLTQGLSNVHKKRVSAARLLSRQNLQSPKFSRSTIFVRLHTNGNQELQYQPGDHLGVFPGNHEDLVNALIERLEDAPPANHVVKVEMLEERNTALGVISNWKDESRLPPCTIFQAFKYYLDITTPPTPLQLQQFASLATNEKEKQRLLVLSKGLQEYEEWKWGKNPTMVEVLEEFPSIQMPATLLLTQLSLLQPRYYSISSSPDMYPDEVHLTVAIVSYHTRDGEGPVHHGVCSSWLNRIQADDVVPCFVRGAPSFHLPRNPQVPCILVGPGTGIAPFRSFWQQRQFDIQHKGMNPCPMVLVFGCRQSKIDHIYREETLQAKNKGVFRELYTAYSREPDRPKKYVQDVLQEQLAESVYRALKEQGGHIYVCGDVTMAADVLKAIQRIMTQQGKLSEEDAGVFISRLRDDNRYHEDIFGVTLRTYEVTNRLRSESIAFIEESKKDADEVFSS

In one data set the target is Mitogen-activated protein kinase 3 (Homo sapiens, UniProt P27361). The experiment in a line: DRUGMATRIX: Protein Serine/Threonine Kinase, ERK1 enzyme inhibition (substrate: Myelin Basic Protein). On the set-up: species or system Escherichia coli. Conditions: Not Active = under 50% inhibition at 10 µM.
Chain of Mitogen-activated protein kinase 3 (P27361 whole entry): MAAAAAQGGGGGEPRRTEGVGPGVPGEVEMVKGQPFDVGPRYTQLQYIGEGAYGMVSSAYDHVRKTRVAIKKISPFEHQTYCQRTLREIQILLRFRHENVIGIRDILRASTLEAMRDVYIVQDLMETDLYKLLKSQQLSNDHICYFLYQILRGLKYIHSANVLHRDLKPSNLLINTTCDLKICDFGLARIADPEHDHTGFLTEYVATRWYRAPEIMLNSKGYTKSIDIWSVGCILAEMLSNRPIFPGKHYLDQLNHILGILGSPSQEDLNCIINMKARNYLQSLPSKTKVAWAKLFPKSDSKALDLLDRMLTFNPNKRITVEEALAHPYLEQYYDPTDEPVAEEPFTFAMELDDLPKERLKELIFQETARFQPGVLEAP
Regarding `CC[C@]1(O)CC[C@H]2[C@@H]3CCC4=CCCC[C@@H]4[C@H]3CC[C@@]21C`, the IC50 result was “Not Active”.

As to `N[C@@H](Cc1ccc(F)cc1)C(=O)O`, the IC50 entry was “Not Active”.

On to `CCOC(=O)[C@H](CCc1ccccc1)N[C@@H](C)C(=O)N1CCC[C@H]1C(=O)O`, for which the IC50 entry was “Not Active”.

Take `C=C1/C(=C\C=C2/CCC[C@]3(C)[C@@H]([C@H](C)CCCC(C)C)CC[C@@H]23)C[C@@H](O)C[C@@H]1O` [ALFACALCIDOL]: the IC50 entry was “Not Active”.

`C[C@@H]1CC[C@H]2[C@@H](C)C(=O)O[C@@H]3O[C@@]4(C)CC[C@@H]1[C@]32OO4` [ARTEMISININ]: the IC50 entry is “Not Active”.

For `[N-]=[N+]=CC(=O)OC[C@H](N)C(=O)O` [AZASERINE], the IC50 entry is recorded as “Not Active”.

On to `CC(C)C[C@H]1C(=O)N2CCC[C@H]2[C@]2(O)O[C@](NC(=O)[C@@H]3C=C4c5cccc6[nH]c(Br)c(c56)C[C@H]4N(C)C3)(C(C)C)C(=O)N12` [BROMOCRIPTINE], for which the IC50 result was “Not Active”.

For the compound `O=C(/C=C/c1ccc(O)c(O)c1)OCCc1ccccc1` [CAFFEIC ACID PHENETHYL ESTER], the IC50 result is recorded as “Not Active”.

As to `Oc1ccccc1O` [CATECHOL], the IC50 entry was “Not Active”.

With `CN(C(=O)CCCOc1ccc2[nH]c(=O)ccc2c1)C1CCCCC1` [CILOSTAMIDE], the IC50 entry is “Not Active”.

A further data set concerns the target Nitric oxide synthase 1 (Rattus norvegicus, UniProt P29476). It is filed as tissue-based, Cerebellum. Also: in other assays of this panel Not Active means under 50% inhibition at 10 µM.
Settings: not given
For `CC[C@]1(O)CC[C@H]2[C@@H]3CCC4=CCCC[C@@H]4[C@H]3CC[C@@]21C`, the IC50 entry was “Not Active”.

Regarding `N[C@@H](Cc1ccc(F)cc1)C(=O)O`, the IC50 result is recorded as “Not Active”.

With `CCOC(=O)[C@H](CCc1ccccc1)N[C@@H](C)C(=O)N1CCC[C@H]1C(=O)O`, the IC50 entry is on record as “Not Active”.

`C=C1/C(=C\C=C2/CCC[C@]3(C)[C@@H]([C@H](C)CCCC(C)C)CC[C@@H]23)C[C@@H](O)C[C@@H]1O` [ALFACALCIDOL]: the IC50 result is on record as “Not Active”.

As to `C[C@@H]1CC[C@H]2[C@@H](C)C(=O)O[C@@H]3O[C@@]4(C)CC[C@@H]1[C@]32OO4` [ARTEMISININ], the IC50 entry is “Not Active”.

For `[N-]=[N+]=CC(=O)OC[C@H](N)C(=O)O` [AZASERINE], the IC50 result was “Not Active”.

Consider `CC(C)C[C@H]1C(=O)N2CCC[C@H]2[C@]2(O)O[C@](NC(=O)[C@@H]3C=C4c5cccc6[nH]c(Br)c(c56)C[C@H]4N(C)C3)(C(C)C)C(=O)N12` [BROMOCRIPTINE], for which the IC50 entry was “Not Active”.

`O=C(/C=C/c1ccc(O)c(O)c1)OCCc1ccccc1` [CAFFEIC ACID PHENETHYL ESTER]: the IC50 entry was “Not Active”.

For `Oc1ccccc1O` [CATECHOL], the IC50 entry is “Not Active”.

On to `CN(C(=O)CCCOc1ccc2[nH]c(=O)ccc2c1)C1CCCCC1` [CILOSTAMIDE], for which the IC50 entry was “Not Active”.

The next data set has as its target Cytochrome P450 2C19 (Homo sapiens, UniProt P33261). Conditions: bti-tn-5b1-4. Also: in other assays of this panel Not Active means under 50% inhibition at 10 µM.
Consider `CCOC(=O)[C@H](CCc1ccccc1)N[C@@H](C)C(=O)N1CCC[C@H]1C(=O)O`, for which the IC50 result is “Not Active” and the Ki entry is given as “Not Active”.

For `C=C1/C(=C\C=C2/CCC[C@]3(C)[C@@H]([C@H](C)CCCC(C)C)CC[C@@H]23)C[C@@H](O)C[C@@H]1O` [ALFACALCIDOL], the IC50 entry is listed as “Not Active” and the Ki entry was “Not Active”.

With `[N-]=[N+]=CC(=O)OC[C@H](N)C(=O)O` [AZASERINE], the IC50 entry was “Not Active” and the Ki entry is given as “Not Active”.

With `CC(C)C[C@H]1C(=O)N2CCC[C@H]2[C@]2(O)O[C@](NC(=O)[C@@H]3C=C4c5cccc6[nH]c(Br)c(c56)C[C@H]4N(C)C3)(C(C)C)C(=O)N12` [BROMOCRIPTINE], the IC50 entry is “Not Active” and the Ki result is recorded as “Not Active”.

For the compound `O=C(/C=C/c1ccc(O)c(O)c1)OCCc1ccccc1` [CAFFEIC ACID PHENETHYL ESTER], the IC50 entry is “Not Active” and the Ki entry is listed as “Not Active”.

For the compound `Oc1ccccc1O` [CATECHOL], the IC50 entry is “Not Active” and the Ki result is reported as “Not Active”.

With `CN(C(=O)CCCOc1ccc2[nH]c(=O)ccc2c1)C1CCCCC1` [CILOSTAMIDE], the IC50 entry is “Not Active” and the Ki result is “Not Active”.

Tested on in another data set: not listed separately
Put plainly: DRUGMATRIX: Calcium Channel Type L, Dihydropyridine radioligand binding (ligand: [3H] Nitrendipine). The format is cell membranes, Rattus norvegicus, Wistar, Cerebral cortex, Membrane. Conditions: Not Active = under 50% inhibition at 10 µM.
In the case of `CC[C@]1(O)CC[C@H]2[C@@H]3CCC4=CCCC[C@@H]4[C@H]3CC[C@@]21C`, the IC50 entry is “Not Active” and the Ki entry is “Not Active”.

On to `N[C@@H](Cc1ccc(F)cc1)C(=O)O`, for which the IC50 entry is “Not Active” and the Ki result was “Not Active”.

As to `CCOC(=O)[C@H](CCc1ccccc1)N[C@@H](C)C(=O)N1CCC[C@H]1C(=O)O`, the IC50 result was “Not Active” and the Ki entry is “Not Active”.

For `C=C1/C(=C\C=C2/CCC[C@]3(C)[C@@H]([C@H](C)CCCC(C)C)CC[C@@H]23)C[C@@H](O)C[C@@H]1O` [ALFACALCIDOL], the IC50 entry is listed as “Not Active” and the Ki entry was “Not Active”.

With `C[C@@H]1CC[C@H]2[C@@H](C)C(=O)O[C@@H]3O[C@@]4(C)CC[C@@H]1[C@]32OO4` [ARTEMISININ], the IC50 result is “Not Active” and the Ki result is reported as “Not Active”.

`[N-]=[N+]=CC(=O)OC[C@H](N)C(=O)O` [AZASERINE]: the IC50 result is recorded as “Not Active” and the Ki result is recorded as “Not Active”.

Consider `CC(C)C[C@H]1C(=O)N2CCC[C@H]2[C@]2(O)O[C@](NC(=O)[C@@H]3C=C4c5cccc6[nH]c(Br)c(c56)C[C@H]4N(C)C3)(C(C)C)C(=O)N12` [BROMOCRIPTINE], for which the IC50 result is “Not Active” and the Ki entry is reported as “Not Active”.

As for `O=C(/C=C/c1ccc(O)c(O)c1)OCCc1ccccc1` [CAFFEIC ACID PHENETHYL ESTER], the IC50 result is listed as “Not Active” and the Ki result was “Not Active”.

With `Oc1ccccc1O` [CATECHOL], the IC50 result is on record as “Not Active” and the Ki entry is “Not Active”.

Take `CN(C(=O)CCCOc1ccc2[nH]c(=O)ccc2c1)C1CCCCC1` [CILOSTAMIDE]: the IC50 result is reported as “Not Active” and the Ki result is given as “Not Active”.

Tested on in the next data set: not listed separately
Put plainly: DRUGMATRIX: Serotonin (5-Hydroxytryptamine) 5-HT3 radioligand binding (ligand: [3H] GR-65630). The format is cell membranes, Membrane. Conditions: hek293; Not Active = under 50% inhibition at 10 µM.
For the compound `CC[C@]1(O)CC[C@H]2[C@@H]3CCC4=CCCC[C@@H]4[C@H]3CC[C@@]21C`, the IC50 entry is listed as “Not Active” and the Ki entry was “Not Active”.

As to `N[C@@H](Cc1ccc(F)cc1)C(=O)O`, the IC50 result is recorded as “Not Active” and the Ki entry is “Not Active”.

As to `CCOC(=O)[C@H](CCc1ccccc1)N[C@@H](C)C(=O)N1CCC[C@H]1C(=O)O`, the IC50 entry was “Not Active” and the Ki result is on record as “Not Active”.

For `C=C1/C(=C\C=C2/CCC[C@]3(C)[C@@H]([C@H](C)CCCC(C)C)CC[C@@H]23)C[C@@H](O)C[C@@H]1O` [ALFACALCIDOL], the IC50 entry is “Not Active” and the Ki entry was “Not Active”.

Regarding `C[C@@H]1CC[C@H]2[C@@H](C)C(=O)O[C@@H]3O[C@@]4(C)CC[C@@H]1[C@]32OO4` [ARTEMISININ], the IC50 entry is recorded as “Not Active” and the Ki result was “Not Active”.

In the case of `[N-]=[N+]=CC(=O)OC[C@H](N)C(=O)O` [AZASERINE], the IC50 entry is on record as “Not Active” and the Ki result is listed as “Not Active”.

With `CC(C)C[C@H]1C(=O)N2CCC[C@H]2[C@]2(O)O[C@](NC(=O)[C@@H]3C=C4c5cccc6[nH]c(Br)c(c56)C[C@H]4N(C)C3)(C(C)C)C(=O)N12` [BROMOCRIPTINE], the IC50 result was “Not Active” and the Ki result was “Not Active”.

With `O=C(/C=C/c1ccc(O)c(O)c1)OCCc1ccccc1` [CAFFEIC ACID PHENETHYL ESTER], the IC50 entry is “Not Active” and the Ki result is on record as “Not Active”.

For the compound `Oc1ccccc1O` [CATECHOL], the IC50 entry is recorded as “Not Active” and the Ki result is given as “Not Active”.

In the case of `CN(C(=O)CCCOc1ccc2[nH]c(=O)ccc2c1)C1CCCCC1` [CILOSTAMIDE], the IC50 entry is on record as “Not Active” and the Ki result is on record as “Not Active”.

In the next data set the target is T1, Substance-K receptor (Homo sapiens, UniProt P21452). Also: in other assays of this panel Not Active means under 50% inhibition at 10 µM.
T1 sequence (P21452 whole entry): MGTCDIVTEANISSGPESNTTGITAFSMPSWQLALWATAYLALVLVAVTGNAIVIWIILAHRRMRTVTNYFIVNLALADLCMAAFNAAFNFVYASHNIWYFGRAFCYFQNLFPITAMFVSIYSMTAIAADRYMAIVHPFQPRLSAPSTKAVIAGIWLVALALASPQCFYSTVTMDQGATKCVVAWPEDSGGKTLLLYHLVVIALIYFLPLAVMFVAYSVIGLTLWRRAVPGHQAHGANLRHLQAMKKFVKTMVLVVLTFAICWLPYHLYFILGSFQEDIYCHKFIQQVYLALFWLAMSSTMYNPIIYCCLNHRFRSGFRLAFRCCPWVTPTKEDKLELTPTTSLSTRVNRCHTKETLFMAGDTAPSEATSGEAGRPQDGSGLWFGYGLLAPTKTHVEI
It is filed as cell membranes, CHO, Membrane. The note with it: cho.
Regarding `CC[C@]1(O)CC[C@H]2[C@@H]3CCC4=CCCC[C@@H]4[C@H]3CC[C@@]21C`, the IC50 result is listed as “Not Active”.

For the compound `N[C@@H](Cc1ccc(F)cc1)C(=O)O`, the IC50 entry is on record as “Not Active”.

For `CCOC(=O)[C@H](CCc1ccccc1)N[C@@H](C)C(=O)N1CCC[C@H]1C(=O)O`, the IC50 entry is on record as “Not Active”.

`C=C1/C(=C\C=C2/CCC[C@]3(C)[C@@H]([C@H](C)CCCC(C)C)CC[C@@H]23)C[C@@H](O)C[C@@H]1O` [ALFACALCIDOL]: the IC50 entry is listed as “Not Active”.

For `C[C@@H]1CC[C@H]2[C@@H](C)C(=O)O[C@@H]3O[C@@]4(C)CC[C@@H]1[C@]32OO4` [ARTEMISININ], the IC50 result is given as “Not Active”.

With `[N-]=[N+]=CC(=O)OC[C@H](N)C(=O)O` [AZASERINE], the IC50 entry is “Not Active”.

On to `CC(C)C[C@H]1C(=O)N2CCC[C@H]2[C@]2(O)O[C@](NC(=O)[C@@H]3C=C4c5cccc6[nH]c(Br)c(c56)C[C@H]4N(C)C3)(C(C)C)C(=O)N12` [BROMOCRIPTINE], for which the IC50 entry is on record as “Not Active”.

`O=C(/C=C/c1ccc(O)c(O)c1)OCCc1ccccc1` [CAFFEIC ACID PHENETHYL ESTER]: the IC50 result is “Not Active”.

`Oc1ccccc1O` [CATECHOL]: the IC50 result is on record as “Not Active”.

In the case of `CN(C(=O)CCCOc1ccc2[nH]c(=O)ccc2c1)C1CCCCC1` [CILOSTAMIDE], the IC50 entry is “Not Active”.
